Test results: ChEMBL document CHEMBL1133774, “'3+1' mixed-ligand oxotechnetium(V) complexes with affinity for melanoma: synthesis and evaluation in vitro and in vivo” (J Med Chem, 2000)

test: Partition coefficient of the unprotonated free amine (logP); format: physicochemical; details: octanol/water

Q: With “N-methyl-3-azapentane-1,5-dithiol complex [listing 1 of 3 here]” as the substance, how does the logP read?
A: Its logP is 1.2.

Q: Which logP does the source give for “N-methyl-3-azapentane-1,5-dithiol complex [listing 2 of 3 here]” here?
A: The logP was 3.5.

Q: For “N-methyl-3-azapentane-1,5-dithiol complex [listing 3 of 3 here]”, which logP is on record?
A: Its logP is 3.7.

test: Biodistribution after 1 hour of postinjection in blood; format: ADME, organism-based; details: in vivo

Q: Which ID/g does the source give for “N-methyl-3-azapentane-1,5-dithiol complex [listing 1 of 3 here]” here?
A: Its ID/g is 2.36%.

Q: Which ID/g does the source give for “N-methyl-3-azapentane-1,5-dithiol complex [listing 2 of 3 here]” here?
A: Its ID/g is 1.26%.

Q: With “N-methyl-3-azapentane-1,5-dithiol complex [listing 3 of 3 here]” as the substance, how does the ID/g read?
A: The ID/g was 1.34%.

test: Biodistribution after 1 hour of postinjection in brain; format: ADME, organism-based; details: in vivo

Q: With “N-methyl-3-azapentane-1,5-dithiol complex [listing 1 of 3 here]” as the substance, how does the ID/g read?
A: The ID/g was 0.64%.

Q: For “N-methyl-3-azapentane-1,5-dithiol complex [listing 2 of 3 here]”, which ID/g is on record?
A: The ID/g was 0.08%.

Q: With “N-methyl-3-azapentane-1,5-dithiol complex [listing 3 of 3 here]” as the substance, how does the ID/g read?
A: Its ID/g is 0.13%.

test: Biodistribution after 1 hour of postinjection in heart; format: ADME, organism-based; details: in vivo

Q: With “N-methyl-3-azapentane-1,5-dithiol complex [listing 1 of 3 here]” as the substance, how does the ID/g read?
A: The ID/g was 1.26%.

Q: For “N-methyl-3-azapentane-1,5-dithiol complex [listing 2 of 3 here]”, which ID/g is on record?
A: The ID/g was 0.66%.

Q: For “N-methyl-3-azapentane-1,5-dithiol complex [listing 3 of 3 here]”, which ID/g is on record?
A: Its ID/g is 1.17%.

test: Biodistribution after 1 hour of postinjection in kidney; format: ADME, organism-based; details: in vivo

Q: Which ID/g does the source give for “N-methyl-3-azapentane-1,5-dithiol complex [listing 1 of 3 here]” here?
A: The ID/g was 19.4%.

Q: Which ID/g does the source give for “N-methyl-3-azapentane-1,5-dithiol complex [listing 2 of 3 here]” here?
A: Its ID/g is 30.4%.

Q: With “N-methyl-3-azapentane-1,5-dithiol complex [listing 3 of 3 here]” as the substance, how does the ID/g read?
A: Its ID/g is 15.3%.

test: Biodistribution after 1 hour of postinjection in liver; format: ADME, organism-based; details: in vivo

Q: With “N-methyl-3-azapentane-1,5-dithiol complex [listing 1 of 3 here]” as the substance, how does the ID/g read?
A: Its ID/g is 4.02%.

Q: Which ID/g does the source give for “N-methyl-3-azapentane-1,5-dithiol complex [listing 2 of 3 here]” here?
A: The ID/g was 43.3%.

Q: With “N-methyl-3-azapentane-1,5-dithiol complex [listing 3 of 3 here]” as the substance, how does the ID/g read?
A: Its ID/g is 35.3%.

test: Biodistribution after 1 hour of postinjection in lungs; format: ADME, organism-based, Lung; details: in vivo

Q: Which ID/g does the source give for “N-methyl-3-azapentane-1,5-dithiol complex [listing 1 of 3 here]” here?
A: Its ID/g is 5.75%.

Q: For “N-methyl-3-azapentane-1,5-dithiol complex [listing 2 of 3 here]”, which ID/g is on record?
A: The ID/g was 2.6%.

Q: Which ID/g does the source give for “N-methyl-3-azapentane-1,5-dithiol complex [listing 3 of 3 here]” here?
A: The ID/g was 3.27%.

test: Biodistribution after 1 hour of postinjection in melanoma; format: ADME, organism-based; details: in vivo

Q: For “N-methyl-3-azapentane-1,5-dithiol complex [listing 1 of 3 here]”, which ID/g is on record?
A: The ID/g was 2.16%.

Q: For “N-methyl-3-azapentane-1,5-dithiol complex [listing 2 of 3 here]”, which ID/g is on record?
A: The ID/g was 4.95%.

Q: For “N-methyl-3-azapentane-1,5-dithiol complex [listing 3 of 3 here]”, which ID/g is on record?
A: The ID/g was 3.26%.

test: Biodistribution after 1 hour of postinjection in muscle; format: ADME, organism-based, Muscle tissue; details: in vivo

Q: With “N-methyl-3-azapentane-1,5-dithiol complex [listing 2 of 3 here]” as the substance, how does the ID/g read?
A: Its ID/g is 0.24%.

Q: Which ID/g does the source give for “N-methyl-3-azapentane-1,5-dithiol complex [listing 3 of 3 here]” here?
A: The ID/g was 0.53%.

test: Biodistribution after 1 hour of postinjection in spleen; format: ADME, organism-based; details: in vivo

Q: Which ID/g does the source give for “N-methyl-3-azapentane-1,5-dithiol complex [listing 1 of 3 here]” here?
A: The ID/g was 5.57%.

Q: For “N-methyl-3-azapentane-1,5-dithiol complex [listing 2 of 3 here]”, which ID/g is on record?
A: The ID/g was 1.15%.

Q: With “N-methyl-3-azapentane-1,5-dithiol complex [listing 3 of 3 here]” as the substance, how does the ID/g read?
A: Its ID/g is 3.35%.

test: Biodistribution after 6 hours of postinjection in blood; format: ADME, organism-based; details: in vivo

Q: With “N-methyl-3-azapentane-1,5-dithiol complex [listing 2 of 3 here]” as the substance, how does the ID/g read?
A: Its ID/g is 0.98%.

Q: Which ID/g does the source give for “N-methyl-3-azapentane-1,5-dithiol complex [listing 3 of 3 here]” here?
A: The ID/g was 1.44%.

test: Biodistribution after 6 hours of postinjection in brain; format: ADME, organism-based; details: in vivo

Q: For “N-methyl-3-azapentane-1,5-dithiol complex [listing 1 of 3 here]”, which ID/g is on record?
A: Its ID/g is 0.26%.

Q: With “N-methyl-3-azapentane-1,5-dithiol complex [listing 3 of 3 here]” as the substance, how does the ID/g read?
A: The ID/g was 0.08%.

test: Biodistribution after 6 hours of postinjection in heart; format: ADME, organism-based; details: in vivo

Q: For “N-methyl-3-azapentane-1,5-dithiol complex [listing 1 of 3 here]”, which ID/g is on record?
A: The ID/g was 0.83%.

Q: With “N-methyl-3-azapentane-1,5-dithiol complex [listing 2 of 3 here]” as the substance, how does the ID/g read?
A: Its ID/g is 0.46%.

Q: Which ID/g does the source give for “N-methyl-3-azapentane-1,5-dithiol complex [listing 3 of 3 here]” here?
A: The ID/g was 0.73%.

test: Biodistribution after 6 hours of postinjection in kidney; format: ADME, organism-based; details: in vivo

Q: With “N-methyl-3-azapentane-1,5-dithiol complex [listing 1 of 3 here]” as the substance, how does the ID/g read?
A: Its ID/g is 11.3%.

Q: With “N-methyl-3-azapentane-1,5-dithiol complex [listing 2 of 3 here]” as the substance, how does the ID/g read?
A: The ID/g was 19.3%.

Q: For “N-methyl-3-azapentane-1,5-dithiol complex [listing 3 of 3 here]”, which ID/g is on record?
A: The ID/g was 11.7%.

test: Biodistribution after 6 hours of postinjection in liver; format: ADME, organism-based; details: in vivo

Q: Which ID/g does the source give for “N-methyl-3-azapentane-1,5-dithiol complex [listing 1 of 3 here]” here?
A: The ID/g was 1.53%.

Q: Which ID/g does the source give for “N-methyl-3-azapentane-1,5-dithiol complex [listing 2 of 3 here]” here?
A: The ID/g was 23%.

Q: With “N-methyl-3-azapentane-1,5-dithiol complex [listing 3 of 3 here]” as the substance, how does the ID/g read?
A: Its ID/g is 17.7%.

test: Biodistribution after 6 hours of postinjection in lungs; format: ADME, organism-based, Lung; details: in vivo

Q: Which ID/g does the source give for “N-methyl-3-azapentane-1,5-dithiol complex [listing 1 of 3 here]” here?
A: The ID/g was 2.91%.

Q: For “N-methyl-3-azapentane-1,5-dithiol complex [listing 2 of 3 here]”, which ID/g is on record?
A: Its ID/g is 1.35%.

Q: With “N-methyl-3-azapentane-1,5-dithiol complex [listing 3 of 3 here]” as the substance, how does the ID/g read?
A: The ID/g was 2.07%.

test: Biodistribution after 6 hours of postinjection in melanoma; format: ADME, organism-based; details: in vivo

Q: Which ID/g does the source give for “N-methyl-3-azapentane-1,5-dithiol complex [listing 1 of 3 here]” here?
A: Its ID/g is 1.53%.

Q: Which ID/g does the source give for “N-methyl-3-azapentane-1,5-dithiol complex [listing 2 of 3 here]” here?
A: The ID/g was 4.12%.

Q: For “N-methyl-3-azapentane-1,5-dithiol complex [listing 3 of 3 here]”, which ID/g is on record?
A: Its ID/g is 3.23%.

test: Biodistribution after 6 hours of postinjection in spleen; format: ADME, organism-based; details: in vivo

Q: For “N-methyl-3-azapentane-1,5-dithiol complex [listing 1 of 3 here]”, which ID/g is on record?
A: The ID/g was 2.91%.

Q: With “N-methyl-3-azapentane-1,5-dithiol complex [listing 2 of 3 here]” as the substance, how does the ID/g read?
A: Its ID/g is 1.3%.

Q: With “N-methyl-3-azapentane-1,5-dithiol complex [listing 3 of 3 here]” as the substance, how does the ID/g read?
A: Its ID/g is 1.25%.

test: Partition coefficient (logD7.4); format: physicochemical; details: octanol/water, pH 7.4

Q: With “N-methyl-3-azapentane-1,5-dithiol complex [listing 1 of 3 here]” as the substance, how does the logD read?
A: Its logD is 1 pH7.4.

Q: With “N-methyl-3-azapentane-1,5-dithiol complex [listing 3 of 3 here]” as the substance, how does the logD read?
A: The logD was 1.1 pH7.4.

test: Biodistribution after 1 hour of postinjection in melanoma/blood; format: ADME, organism-based; details: in vivo

Q: Which Ratio does the source give for “N-methyl-3-azapentane-1,5-dithiol complex [listing 1 of 3 here]” here?
A: Its Ratio is under 1.

Q: With “N-methyl-3-azapentane-1,5-dithiol complex [listing 2 of 3 here]” as the substance, how does the Ratio read?
A: Its Ratio is 3.9.

Q: Which Ratio does the source give for “N-methyl-3-azapentane-1,5-dithiol complex [listing 3 of 3 here]” here?
A: The Ratio was 2.4.

test: Biodistribution after 1 hour of postinjection in melanoma/liver; format: ADME, organism-based; details: in vivo

Q: With “N-methyl-3-azapentane-1,5-dithiol complex [listing 3 of 3 here]” as the substance, how does the Ratio read?
A: The Ratio was under 1.

test: Biodistribution after 1 hour of postinjection in melanoma/lungs; format: ADME, organism-based, Lung; details: in vivo

Q: With “N-methyl-3-azapentane-1,5-dithiol complex [listing 1 of 3 here]” as the substance, how does the Ratio read?
A: The Ratio was under 1.

Q: With “N-methyl-3-azapentane-1,5-dithiol complex [listing 2 of 3 here]” as the substance, how does the Ratio read?
A: The Ratio was 1.9.

Q: Which Ratio does the source give for “N-methyl-3-azapentane-1,5-dithiol complex [listing 3 of 3 here]” here?
A: Its Ratio is 1.

test: Biodistribution after 1 hour of postinjection in melanoma/spleen; format: ADME, organism-based; details: in vivo

Q: For “N-methyl-3-azapentane-1,5-dithiol complex [listing 2 of 3 here]”, which Ratio is on record?
A: Its Ratio is 4.3.

Q: Which Ratio does the source give for “N-methyl-3-azapentane-1,5-dithiol complex [listing 3 of 3 here]” here?
A: Its Ratio is under 1.

test: Biodistribution after 6 hours of postinjection in melanoma/blood; format: ADME, organism-based; details: in vivo

Q: For “N-methyl-3-azapentane-1,5-dithiol complex [listing 1 of 3 here]”, which Ratio is on record?
A: Its Ratio is 1.1.

Q: Which Ratio does the source give for “N-methyl-3-azapentane-1,5-dithiol complex [listing 2 of 3 here]” here?
A: Its Ratio is 4.2.

Q: For “N-methyl-3-azapentane-1,5-dithiol complex [listing 3 of 3 here]”, which Ratio is on record?
A: Its Ratio is 2.2.

test: Biodistribution after 6 hours of postinjection in melanoma/liver; format: ADME, organism-based; details: in vivo

Q: Which Ratio does the source give for “N-methyl-3-azapentane-1,5-dithiol complex [listing 3 of 3 here]” here?
A: Its Ratio is under 1.

test: Biodistribution after 6 hours of postinjection in melanoma/lungs; format: ADME, organism-based, Lung; details: in vivo

Q: Which Ratio does the source give for “N-methyl-3-azapentane-1,5-dithiol complex [listing 1 of 3 here]” here?
A: The Ratio was under 1.

Q: For “N-methyl-3-azapentane-1,5-dithiol complex [listing 2 of 3 here]”, which Ratio is on record?
A: Its Ratio is 3.1.

Q: For “N-methyl-3-azapentane-1,5-dithiol complex [listing 3 of 3 here]”, which Ratio is on record?
A: Its Ratio is 1.6.

test: Biodistribution after 6 hours of postinjection in melanoma/spleen; format: ADME, organism-based; details: in vivo

Q: For “N-methyl-3-azapentane-1,5-dithiol complex [listing 1 of 3 here]”, which Ratio is on record?
A: The Ratio was 1.

Q: Which Ratio does the source give for “N-methyl-3-azapentane-1,5-dithiol complex [listing 2 of 3 here]” here?
A: The Ratio was 3.2.

Q: Which Ratio does the source give for “N-methyl-3-azapentane-1,5-dithiol complex [listing 3 of 3 here]” here?
A: Its Ratio is 2.6.

test: Biodistribution after 6 hours of postinjection in muscle; format: ADME, organism-based, Muscle tissue; details: in vivo

Q: Which ID/g does the source give for “N-methyl-3-azapentane-1,5-dithiol complex [listing 2 of 3 here]” here?
A: The ID/g was 0.2%.

Q: With “N-methyl-3-azapentane-1,5-dithiol complex [listing 3 of 3 here]” as the substance, how does the ID/g read?
A: The ID/g was 0.26%.

test: aqueous ionization constant (pKa) determined by HPLC methods; format: physicochemical; details: buffer

Q: With “N-methyl-3-azapentane-1,5-dithiol complex [listing 1 of 3 here]” as the substance, how does the pKa read?
A: The pKa was 7.2.

Q: For “N-methyl-3-azapentane-1,5-dithiol complex [listing 3 of 3 here]”, which pKa is on record?
A: The pKa was 9.9.
